Experimental findings from patent US9018194B2 (Nibon University, priority 2011, dated 2015) are described below.

The target of experiment [1] is T1, human VDR (Homo sapiens, UniProt P11473).
T1 sequence (P11473 1-427): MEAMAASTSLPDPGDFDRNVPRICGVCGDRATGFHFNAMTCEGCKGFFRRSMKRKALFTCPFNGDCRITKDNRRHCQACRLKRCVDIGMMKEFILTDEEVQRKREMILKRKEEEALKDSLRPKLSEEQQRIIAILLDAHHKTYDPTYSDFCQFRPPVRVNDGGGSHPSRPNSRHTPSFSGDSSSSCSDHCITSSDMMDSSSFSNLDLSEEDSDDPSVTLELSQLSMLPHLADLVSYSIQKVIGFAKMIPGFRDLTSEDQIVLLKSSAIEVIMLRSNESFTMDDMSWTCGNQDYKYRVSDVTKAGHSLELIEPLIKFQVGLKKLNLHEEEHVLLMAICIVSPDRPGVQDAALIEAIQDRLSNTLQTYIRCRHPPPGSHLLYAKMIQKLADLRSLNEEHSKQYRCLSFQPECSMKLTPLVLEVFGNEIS
Description: VDR transcription induction activity, luciferase reporter assay (mouse osteopontin VDRE) in HEK293 cells transfected with human VDR. The class given is cell-based. Further details: expressed in transfected cells; host or cells: HEK293 cells. To be noted: for efficacy of VDR transcription induction, % of that of the natural hormone / concentration at which the highest transcription activity was shown: HEK293 cells; for efficacy of VDR transcription induction, % of that of the natural hormone: Sppx3-tk-LUC reporter, relative to 1,25(OH)2D3; for concentration at which the highest transcription activity was shown: 10^-8 M was the lowest concentration used. The procedure: Briefly, HEK cells were transfected with human VDR expression vector (pCMX-VDR) and expression vectors for VDR responsive luciferase (Sppx3-tk-LUC) and β-galactosidase by the calcium phosphate method. Eight hours later, compounds were added to the cells. After culturing for 16-24 hr, cells were harvested, and the activities of luciferase and β-galactosidase were measured. Luciferase activity values were corrected with β-galactosidase activity values.
On the technique in general: Reporter assays use an easily measured gene product as a stand-in for the process of interest.

The target of experiment [2] is T1, human VDR. To be noted: for VDR binding ability, rank in words: among ADTK1 through ADTK4.

As for `C=C1[C@H](O)CC(=C/C=C2\CCC[C@]3(C)[C@@H]([C@H](C)CC#C[C@H](O)CC45CC6CC(CC(C6)C4)C5)CC[C@@H]23)C[C@H]1O` [ADTK3, (25R)-26-(1-Adamantyl)-1α,25-dihydroxy-2-methylene-23,23,24,24-tetradehydro-19,27-dinorvitamin D3], in experiment [1], the “efficacy of VDR transcription induction, % of that of the natural hormone” value (shortened to “efficacy … % of that of the natural hormone”) came out at 72% and the “concentration at which the highest transcription activity was shown” value (from here on “concentration”) is “around 10^−7 M”. For the same compound, the “VDR binding ability, rank in words” value in experiment [2] was “lowest VDR binding ability”.
Regarding `C=C1[C@H](O)CC(=C/C=C2\CCC[C@]3(C)[C@@H]([C@H](C)CC#C[C@@H](O)CC45CC6CC(CC(C6)C4)C5)CC[C@@H]23)C[C@H]1O` [ADTK4, (25S)-26-(1-Adamantyl)-1α,25-dihydroxy-2-methylene-23,23,24,24-tetradehydro-19,27-dinorvitamin D3], in experiment [1], the “efficacy … % of that of the natural hormone” value is on record as 54% and the “concentration” value is given as “around 10^−7 M”.
Regarding “(25R)-25-(1-Adamantyl)-1α,25-dihydroxy-2-methylene-23,23,24,24-tetradehydro-19,26,27-trinorvitamin D3 [ADTK2]”, in experiment [1], the “efficacy … % of that of the natural hormone” value is reported as 66% and the “concentration” value was 10^−8 M. In experiment [1] (HEK293 luciferase assay, alone and in co-presence of 1,25(OH)2D3), the “type of activity at VDR (in words)” value is recorded as “partial agonist”. Moreover, in experiment [2], the “VDR binding ability, rank in words” value is recorded as “highest VDR binding activity”. Also, the “affinity for human VDR relative to the natural hormone 1,25(OH)2D3” value in experiment [2] (competition with [3H]-1,25(OH)2D3, 1,25(OH)2D3 = 100%) is listed as 67%.
“(25S)-25-(1-Adamantyl)-1α,25-dihydroxy-2-methylene-23,23,24,24-tetradehydro-19,26,27-trinorvitamin D3 [ADTK1]”: in experiment [1], the “efficacy … % of that of the natural hormone” value is listed as 40% and the “concentration” value is “around 10^−7 M”.
